One assay concerns the target Histone deacetylase 1 (Homo sapiens, UniProt Q13547). The assay is described as follows: Inhibition of recombinant human C-terminal His-tagged HDAC1 expressed in Sf9 insect cells using Fluor de Lys deacetylase or Fluor de Lys Green deacetylase as substrate by fluorescent microplate reader assay.
The species entered for a further assay is Homo sapiens. Put plainly: Selectivity index, ratio of IC50 for recombinant human C-terminal His-tagged HDAC1 expressed in Sf9 cells to IC50 for recombinant human full length N-terminal GST-tagged HDAC6 expressed in Sf9 cells.
In a further assay the target is Histone deacetylase 2 (Homo sapiens, UniProt Q92769). Put plainly: Inhibition of recombinant human C-terminal His-tagged HDAC2 (1 to 488 residues) expressed in Sf9 insect cells using Fluor de Lys deacetylase or Fluor de Lys Green deacetylase substrate by fluorescent microplate reader assay.
Chain of Histone deacetylase 2 (Q92769 whole entry, the tested form may be a part): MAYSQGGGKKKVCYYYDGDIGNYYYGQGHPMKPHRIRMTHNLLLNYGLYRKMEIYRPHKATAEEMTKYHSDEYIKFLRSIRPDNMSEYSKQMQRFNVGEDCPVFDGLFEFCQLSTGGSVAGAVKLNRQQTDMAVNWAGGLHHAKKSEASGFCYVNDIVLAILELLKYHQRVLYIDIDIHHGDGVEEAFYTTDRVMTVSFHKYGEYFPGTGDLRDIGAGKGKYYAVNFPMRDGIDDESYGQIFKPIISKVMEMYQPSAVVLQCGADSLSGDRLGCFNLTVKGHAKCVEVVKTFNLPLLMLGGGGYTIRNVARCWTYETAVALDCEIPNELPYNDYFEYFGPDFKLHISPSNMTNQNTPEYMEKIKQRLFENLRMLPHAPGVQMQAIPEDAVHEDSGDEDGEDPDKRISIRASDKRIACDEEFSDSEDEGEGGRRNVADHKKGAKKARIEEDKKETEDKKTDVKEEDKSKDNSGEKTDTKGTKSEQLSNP
The target of the next assay is Histone deacetylase 3 (Homo sapiens, UniProt O15379). Put plainly: Inhibition of recombinant human C-terminal His-tagged HDAC3 (1 to 428 residues) expressed in Sf9 insect cells using Fluor de Lys deacetylase or Fluor de Lys Green deacetylase substrate by fluorescent microplate reader assay.
Chain of Histone deacetylase 3 (O15379 whole entry, the tested form may be a part): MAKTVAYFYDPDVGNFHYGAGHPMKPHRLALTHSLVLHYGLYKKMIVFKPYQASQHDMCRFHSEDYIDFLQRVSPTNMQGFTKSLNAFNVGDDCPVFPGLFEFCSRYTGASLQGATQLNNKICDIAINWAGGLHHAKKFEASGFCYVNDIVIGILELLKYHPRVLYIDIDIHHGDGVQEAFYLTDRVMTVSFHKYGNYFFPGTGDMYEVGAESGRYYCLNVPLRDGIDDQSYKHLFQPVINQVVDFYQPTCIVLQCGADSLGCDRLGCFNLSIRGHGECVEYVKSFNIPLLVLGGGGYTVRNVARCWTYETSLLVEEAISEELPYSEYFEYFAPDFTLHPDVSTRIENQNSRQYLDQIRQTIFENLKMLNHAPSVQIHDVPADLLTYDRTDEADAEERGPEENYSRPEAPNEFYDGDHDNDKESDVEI
The target in the next assay is Histone deacetylase 4 (Homo sapiens, UniProt P56524). Put plainly: Inhibition of recombinant human N-terminal GST-tagged and C-terminal His-tagged HDAC4 (627 to 1084 residues) expressed in Sf9 insect cells using Nepsilon-Trifluoroacetyl L-lysine as substrate by fluorescent microplate reader assay.
Chain of Histone deacetylase 4 (P56524 whole entry, the tested form may be a part): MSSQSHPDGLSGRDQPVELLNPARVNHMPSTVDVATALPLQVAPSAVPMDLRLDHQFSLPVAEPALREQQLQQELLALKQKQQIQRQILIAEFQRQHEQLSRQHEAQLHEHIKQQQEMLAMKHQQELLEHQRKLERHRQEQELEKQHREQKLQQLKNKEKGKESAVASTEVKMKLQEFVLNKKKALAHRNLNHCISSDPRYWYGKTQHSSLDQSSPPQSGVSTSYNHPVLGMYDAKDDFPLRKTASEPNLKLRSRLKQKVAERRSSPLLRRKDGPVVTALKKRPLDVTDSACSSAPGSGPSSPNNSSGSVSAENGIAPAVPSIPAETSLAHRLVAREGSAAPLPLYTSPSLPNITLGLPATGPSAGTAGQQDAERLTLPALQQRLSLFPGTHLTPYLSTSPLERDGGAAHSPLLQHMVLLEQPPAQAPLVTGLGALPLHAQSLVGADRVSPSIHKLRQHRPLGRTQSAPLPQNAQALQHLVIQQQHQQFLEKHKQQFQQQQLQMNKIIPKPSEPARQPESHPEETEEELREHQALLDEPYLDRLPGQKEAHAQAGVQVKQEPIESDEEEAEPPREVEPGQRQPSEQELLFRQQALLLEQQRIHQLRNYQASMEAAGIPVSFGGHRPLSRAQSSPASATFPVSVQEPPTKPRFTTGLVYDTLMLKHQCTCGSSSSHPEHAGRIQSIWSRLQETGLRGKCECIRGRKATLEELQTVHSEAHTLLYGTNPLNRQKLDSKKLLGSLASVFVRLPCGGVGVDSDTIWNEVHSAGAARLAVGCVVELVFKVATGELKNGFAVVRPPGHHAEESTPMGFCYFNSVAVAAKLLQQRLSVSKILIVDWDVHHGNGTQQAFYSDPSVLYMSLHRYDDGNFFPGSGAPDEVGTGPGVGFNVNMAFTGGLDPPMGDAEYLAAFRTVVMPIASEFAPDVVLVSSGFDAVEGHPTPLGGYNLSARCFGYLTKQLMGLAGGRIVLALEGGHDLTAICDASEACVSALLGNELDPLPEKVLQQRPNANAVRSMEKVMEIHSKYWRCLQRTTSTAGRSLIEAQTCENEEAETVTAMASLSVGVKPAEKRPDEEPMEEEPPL
A further assay has as its target Histone deacetylase 5 (Homo sapiens, UniProt Q9UQL6). The assay is described as follows: Inhibition of recombinant human ful length N-terminal GST-tagged HDAC5 expressed in baculovirus expression system using Nepsilon-Trifluoroacetyl L-lysine as substrate by fluorescent microplate reader assay.
Another assay addresses T1, Histone deacetylase 7 (Homo sapiens, UniProt Q8WUI4).
T1 sequence (Q8WUI4 whole entry): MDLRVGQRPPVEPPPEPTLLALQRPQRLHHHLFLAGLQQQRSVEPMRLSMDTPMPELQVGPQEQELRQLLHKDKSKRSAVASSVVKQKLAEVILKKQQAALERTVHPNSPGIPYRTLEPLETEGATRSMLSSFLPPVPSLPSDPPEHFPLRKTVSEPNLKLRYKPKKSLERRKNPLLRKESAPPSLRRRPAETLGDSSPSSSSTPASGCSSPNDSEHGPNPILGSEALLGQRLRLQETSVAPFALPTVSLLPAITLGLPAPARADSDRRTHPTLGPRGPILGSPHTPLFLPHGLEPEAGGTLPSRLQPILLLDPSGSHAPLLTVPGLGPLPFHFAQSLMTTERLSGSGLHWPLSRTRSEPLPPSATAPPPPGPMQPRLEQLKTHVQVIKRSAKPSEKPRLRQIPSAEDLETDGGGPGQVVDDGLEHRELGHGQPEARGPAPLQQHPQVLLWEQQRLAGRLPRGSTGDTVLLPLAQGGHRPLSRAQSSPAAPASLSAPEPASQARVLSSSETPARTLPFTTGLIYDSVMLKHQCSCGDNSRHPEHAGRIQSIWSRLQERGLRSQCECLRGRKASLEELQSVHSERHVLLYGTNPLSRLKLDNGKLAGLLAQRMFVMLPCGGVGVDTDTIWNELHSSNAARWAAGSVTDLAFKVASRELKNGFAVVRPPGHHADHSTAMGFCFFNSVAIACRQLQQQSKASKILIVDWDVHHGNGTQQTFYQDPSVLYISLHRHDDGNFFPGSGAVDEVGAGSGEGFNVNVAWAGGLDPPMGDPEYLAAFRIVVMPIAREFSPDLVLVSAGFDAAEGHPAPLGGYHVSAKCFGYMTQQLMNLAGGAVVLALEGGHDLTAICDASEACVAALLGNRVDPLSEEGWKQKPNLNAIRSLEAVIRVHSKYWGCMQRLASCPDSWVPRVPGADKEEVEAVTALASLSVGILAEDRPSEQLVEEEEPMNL
Put plainly: Inhibition of recombinant human N-terminal GST-tagged HDAC7 (518 to end residues) expressed in baculovirus expression system using Nepsilon-Trifluoroacetyl L-lysine as substrate by fluorescent microplate reader assay.

The target of the next assay is T2, Histone deacetylase 8 (Homo sapiens, UniProt Q9BY41).
T2 sequence (Q9BY41 whole entry): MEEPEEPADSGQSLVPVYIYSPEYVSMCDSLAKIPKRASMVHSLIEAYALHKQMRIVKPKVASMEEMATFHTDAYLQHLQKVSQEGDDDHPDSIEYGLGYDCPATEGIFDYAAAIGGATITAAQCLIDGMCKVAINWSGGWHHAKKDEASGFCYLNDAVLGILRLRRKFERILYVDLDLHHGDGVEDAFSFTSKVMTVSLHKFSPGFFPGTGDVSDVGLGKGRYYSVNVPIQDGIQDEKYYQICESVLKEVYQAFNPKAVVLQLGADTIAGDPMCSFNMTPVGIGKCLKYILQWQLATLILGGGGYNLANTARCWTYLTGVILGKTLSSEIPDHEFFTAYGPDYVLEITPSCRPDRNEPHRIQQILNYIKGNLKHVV
Put plainly: Inhibition of recombinant human full length C-terminal His-tagged HDAC8 expressed in baculovirus expression system using Fluor de Lys deacetylase or Fluor de Lys Green deacetylase substrate by fluorescent microplate reader assay.

A further assay has as its target Histone deacetylase 9 (Homo sapiens, UniProt Q9UKV0). Put plainly: Inhibition of recombinant human C-terminal His-tagged HDAC9 (604 to 1066 residues) expressed in baculovirus expression system using Nepsilon-Trifluoroacetyl L-lysine substrate by fluorescent microplate reader assay.
Assay [1] concerns the target T3, Polyamine deacetylase HDAC10 (Homo sapiens, UniProt Q969S8).
T3 sequence (Q969S8 whole entry): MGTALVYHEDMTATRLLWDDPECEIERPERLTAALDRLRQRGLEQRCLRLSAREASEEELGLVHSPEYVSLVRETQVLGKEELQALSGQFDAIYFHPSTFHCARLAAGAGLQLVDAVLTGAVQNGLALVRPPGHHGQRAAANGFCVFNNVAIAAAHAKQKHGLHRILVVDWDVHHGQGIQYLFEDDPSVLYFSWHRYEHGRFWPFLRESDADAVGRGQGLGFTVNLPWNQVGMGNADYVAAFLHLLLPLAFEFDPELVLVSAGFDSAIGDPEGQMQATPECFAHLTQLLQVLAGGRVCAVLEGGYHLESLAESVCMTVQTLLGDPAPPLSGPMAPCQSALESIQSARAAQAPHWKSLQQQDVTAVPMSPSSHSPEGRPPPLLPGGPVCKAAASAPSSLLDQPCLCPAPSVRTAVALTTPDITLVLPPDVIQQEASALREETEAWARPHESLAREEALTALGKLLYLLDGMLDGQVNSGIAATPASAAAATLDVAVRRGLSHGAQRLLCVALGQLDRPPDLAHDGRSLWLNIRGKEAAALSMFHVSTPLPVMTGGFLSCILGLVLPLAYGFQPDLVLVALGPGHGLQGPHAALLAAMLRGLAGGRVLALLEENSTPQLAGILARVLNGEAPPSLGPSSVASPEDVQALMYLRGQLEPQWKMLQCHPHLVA
Put plainly: Inhibition of recombinant human N-terminal FLAG-tagged HDAC10 (1 to 613 residues) expressed in Sf9 insect cells using Fluor de Lys deacetylase or Fluor de Lys Green deacetylase substrate by fluorescent microplate reader assay.

The target in the next assay is T4, Histone deacetylase 11 (Homo sapiens, UniProt Q96DB2).
T4 sequence (Q96DB2 whole entry): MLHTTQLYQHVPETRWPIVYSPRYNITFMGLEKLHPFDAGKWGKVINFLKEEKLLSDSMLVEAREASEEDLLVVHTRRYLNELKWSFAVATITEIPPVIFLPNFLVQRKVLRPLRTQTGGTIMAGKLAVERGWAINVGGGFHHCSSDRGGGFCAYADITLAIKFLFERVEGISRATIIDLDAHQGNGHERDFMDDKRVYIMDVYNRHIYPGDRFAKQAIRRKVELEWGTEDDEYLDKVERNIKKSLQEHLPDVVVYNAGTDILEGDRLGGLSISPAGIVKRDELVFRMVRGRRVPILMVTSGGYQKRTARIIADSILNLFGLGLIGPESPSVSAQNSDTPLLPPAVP
The assay is described as follows: Inhibition of recombinant human N-terminal His-tagged HDAC11 expressed in baculovirus expression system using Fluor de Lys deacetylase or Fluor de Lys Green deacetylase substrate by fluorescent microplate reader assay.

pIC50: −log10 of the molar value.

Chain of Histone deacetylase 5 (Q9UQL6 whole entry): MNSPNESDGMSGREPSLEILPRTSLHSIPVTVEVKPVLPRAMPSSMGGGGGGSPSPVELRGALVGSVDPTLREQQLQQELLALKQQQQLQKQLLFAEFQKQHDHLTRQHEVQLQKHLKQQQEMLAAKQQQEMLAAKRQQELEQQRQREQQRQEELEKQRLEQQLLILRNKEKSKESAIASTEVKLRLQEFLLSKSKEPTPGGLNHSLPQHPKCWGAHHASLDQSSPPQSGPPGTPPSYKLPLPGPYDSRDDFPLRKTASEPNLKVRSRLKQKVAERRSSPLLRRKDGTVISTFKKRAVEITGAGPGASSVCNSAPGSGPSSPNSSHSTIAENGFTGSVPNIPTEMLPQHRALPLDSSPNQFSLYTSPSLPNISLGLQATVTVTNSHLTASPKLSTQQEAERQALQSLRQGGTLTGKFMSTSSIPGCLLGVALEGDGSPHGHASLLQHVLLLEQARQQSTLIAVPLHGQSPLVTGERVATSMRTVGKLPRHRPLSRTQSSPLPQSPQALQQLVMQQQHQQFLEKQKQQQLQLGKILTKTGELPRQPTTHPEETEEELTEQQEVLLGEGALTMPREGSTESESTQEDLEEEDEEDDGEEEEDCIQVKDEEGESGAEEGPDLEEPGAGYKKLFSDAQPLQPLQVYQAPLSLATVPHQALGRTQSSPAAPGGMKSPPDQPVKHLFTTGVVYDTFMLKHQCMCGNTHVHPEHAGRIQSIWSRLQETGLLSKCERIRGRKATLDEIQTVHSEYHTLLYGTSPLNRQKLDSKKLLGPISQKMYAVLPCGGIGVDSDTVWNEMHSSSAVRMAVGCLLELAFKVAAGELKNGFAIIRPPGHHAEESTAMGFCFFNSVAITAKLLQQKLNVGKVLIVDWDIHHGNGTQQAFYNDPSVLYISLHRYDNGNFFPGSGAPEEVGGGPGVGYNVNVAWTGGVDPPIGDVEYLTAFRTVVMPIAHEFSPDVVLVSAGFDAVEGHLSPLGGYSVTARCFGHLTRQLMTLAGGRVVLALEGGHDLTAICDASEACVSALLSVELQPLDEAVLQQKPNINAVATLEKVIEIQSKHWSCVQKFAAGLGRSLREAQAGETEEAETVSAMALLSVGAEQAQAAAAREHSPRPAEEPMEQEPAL
Chain of Histone deacetylase 1 (Q13547 whole entry): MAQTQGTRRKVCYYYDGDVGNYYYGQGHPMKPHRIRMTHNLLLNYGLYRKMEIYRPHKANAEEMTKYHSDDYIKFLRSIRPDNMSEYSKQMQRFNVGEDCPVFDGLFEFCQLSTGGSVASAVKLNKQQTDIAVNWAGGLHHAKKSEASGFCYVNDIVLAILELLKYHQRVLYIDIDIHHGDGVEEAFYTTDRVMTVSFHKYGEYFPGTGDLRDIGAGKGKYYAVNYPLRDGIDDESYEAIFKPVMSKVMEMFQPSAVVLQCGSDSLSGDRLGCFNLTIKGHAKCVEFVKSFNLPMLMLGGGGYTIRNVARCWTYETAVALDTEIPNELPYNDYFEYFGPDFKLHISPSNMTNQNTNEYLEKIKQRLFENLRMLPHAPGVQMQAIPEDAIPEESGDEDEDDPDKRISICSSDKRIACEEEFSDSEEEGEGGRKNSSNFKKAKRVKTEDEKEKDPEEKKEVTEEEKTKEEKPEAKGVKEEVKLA
Chain of Histone deacetylase 9 (Q9UKV0 whole entry, the tested form may be a part): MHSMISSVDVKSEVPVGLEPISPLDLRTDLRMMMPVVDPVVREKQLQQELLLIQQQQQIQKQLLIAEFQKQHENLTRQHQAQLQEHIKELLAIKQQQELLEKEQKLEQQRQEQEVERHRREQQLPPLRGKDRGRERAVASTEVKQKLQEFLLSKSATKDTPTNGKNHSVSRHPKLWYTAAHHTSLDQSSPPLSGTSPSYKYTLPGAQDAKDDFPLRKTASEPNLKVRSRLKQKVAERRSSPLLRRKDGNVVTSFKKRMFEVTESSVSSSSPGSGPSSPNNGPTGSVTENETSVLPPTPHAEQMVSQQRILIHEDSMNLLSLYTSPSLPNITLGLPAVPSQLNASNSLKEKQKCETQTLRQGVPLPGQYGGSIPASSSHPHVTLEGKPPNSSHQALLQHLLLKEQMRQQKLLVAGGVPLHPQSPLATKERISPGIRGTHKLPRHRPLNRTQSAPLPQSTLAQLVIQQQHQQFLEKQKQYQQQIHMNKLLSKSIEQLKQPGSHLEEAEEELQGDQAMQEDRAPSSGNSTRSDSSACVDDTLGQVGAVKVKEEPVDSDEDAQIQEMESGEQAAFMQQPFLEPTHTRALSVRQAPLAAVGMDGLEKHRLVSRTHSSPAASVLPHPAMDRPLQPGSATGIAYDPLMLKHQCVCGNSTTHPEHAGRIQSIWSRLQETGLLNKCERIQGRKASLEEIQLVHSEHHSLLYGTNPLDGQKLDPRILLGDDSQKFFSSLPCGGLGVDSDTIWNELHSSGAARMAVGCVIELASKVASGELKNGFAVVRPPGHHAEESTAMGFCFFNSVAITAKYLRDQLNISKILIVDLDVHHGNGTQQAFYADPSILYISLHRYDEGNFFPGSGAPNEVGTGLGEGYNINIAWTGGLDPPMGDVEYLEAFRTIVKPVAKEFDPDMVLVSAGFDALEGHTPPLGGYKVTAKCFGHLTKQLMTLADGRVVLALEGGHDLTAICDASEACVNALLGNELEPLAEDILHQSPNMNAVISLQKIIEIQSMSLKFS

By pIC50 is commonly meant the IC50 on a negative log10 scale, so that one unit is a factor of ten. Turning to `O=C(NO)c1ccc(Cn2nnc(-c3ncccn3)n2)cc1`, the pIC50 on Histone deacetylase 1 is 6.03; on Histone deacetylase 2, 5.52; at Histone deacetylase 3, 6.05; at Histone deacetylase 4 it was 5.34; on Histone deacetylase 5, 5.30; at Histone deacetylase 7, 6.00. Moreover, the negative logarithm of the IC50 (pIC50) at Histone deacetylase 8 was 6.49; on Histone deacetylase 9 it was 5.77; in assay [1] it was 6.32; at Histone deacetylase 11, 6.12. The Selectivity Index in the assay filed under Homo sapiens is 733.

These data come from ChEMBL document CHEMBL4825781, “Role of Fluorination in the Histone Deacetylase 6 (HDAC6) Selectivity of Benzohydroxamate-Based Inhibitors” (ACS Med Chem Lett, 2021).
